Among the data in US20110230476A1, “PI3 KINASE INHIBITORS AND USES THEREOF” (AVILA THERAPEUTICS, INC., priority 2009, published 2011) are EC50 and IC50 values, retold here.

In assay [1] the test system is Phospho-Akt(Ser473). Nature of the assay: Dose response in SKOV3 cells as determined by Western blot. Type of assay: cell-based. Conditions: Homo sapiens, SK-OV-3, 1 hr, Phospho-Akt normalized to total Akt, read-out: Immunoblot. In a few lines:
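SKOV3 cells in DMEM/10% FBS were treated with compound in 0.1% DMSO for 1 hr, then lysed. 50 ug protein was immunoblotted for Phospho-Akt(Ser473) and total Akt with fluorescent read-out. Phospho-Akt was normalized to total Akt and expressed as percent of untreated signal.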
(In general: Immunoblotting shows a protein as a band on a membrane.)

Another assay concerns the target T1, PI3Kβ (p110β/p85α) (Homo sapiens, UniProt P42338).
T1 construct: purchased BPS Bioscience (San Diego, Calif.) or Millipore (Billerica, Mass.)
Briefly: HTRF assay, potency against active PI3Kβ. The conditions noted are these: [ATP]=50 μM, [di-C8-PIP2]=10 μM, 30 min pre-incubation, read-out: PI3Kβ Inhibition. Type of assay: biochemical. The method in brief:
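IC50 came from a variable-slope fit of % inhibition, calculated from the HTRF emission ratio relative to wells with and without enzyme. Reactions with the active enzyme complex ran 30-60 minutes at 25 °C after ATP addition before stop and detection reagents.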

Assay [2] deals with Phospho-Akt(Ser473). Briefly: Dose response in SKOV3 cells as determined by in-cell Western. The conditions noted are these: Homo sapiens, SK-OV-3. The class given is cell-based. The method in brief:
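SKOV3 cells treated with compound for 1 hr, then formaldehyde-fixed, permeabilised and stained overnight for phospho-Akt(Ser473) with anti-tubulin as a reference. Infrared secondary antibodies read at 680 and 800 nm channels by in-cell Western imaging.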

The mark [3] stands for this setting: SKOV3 cells, 1 hr, read-out: pAKT Inhibition in cell Western.

T1 sequence (P42338 whole entry): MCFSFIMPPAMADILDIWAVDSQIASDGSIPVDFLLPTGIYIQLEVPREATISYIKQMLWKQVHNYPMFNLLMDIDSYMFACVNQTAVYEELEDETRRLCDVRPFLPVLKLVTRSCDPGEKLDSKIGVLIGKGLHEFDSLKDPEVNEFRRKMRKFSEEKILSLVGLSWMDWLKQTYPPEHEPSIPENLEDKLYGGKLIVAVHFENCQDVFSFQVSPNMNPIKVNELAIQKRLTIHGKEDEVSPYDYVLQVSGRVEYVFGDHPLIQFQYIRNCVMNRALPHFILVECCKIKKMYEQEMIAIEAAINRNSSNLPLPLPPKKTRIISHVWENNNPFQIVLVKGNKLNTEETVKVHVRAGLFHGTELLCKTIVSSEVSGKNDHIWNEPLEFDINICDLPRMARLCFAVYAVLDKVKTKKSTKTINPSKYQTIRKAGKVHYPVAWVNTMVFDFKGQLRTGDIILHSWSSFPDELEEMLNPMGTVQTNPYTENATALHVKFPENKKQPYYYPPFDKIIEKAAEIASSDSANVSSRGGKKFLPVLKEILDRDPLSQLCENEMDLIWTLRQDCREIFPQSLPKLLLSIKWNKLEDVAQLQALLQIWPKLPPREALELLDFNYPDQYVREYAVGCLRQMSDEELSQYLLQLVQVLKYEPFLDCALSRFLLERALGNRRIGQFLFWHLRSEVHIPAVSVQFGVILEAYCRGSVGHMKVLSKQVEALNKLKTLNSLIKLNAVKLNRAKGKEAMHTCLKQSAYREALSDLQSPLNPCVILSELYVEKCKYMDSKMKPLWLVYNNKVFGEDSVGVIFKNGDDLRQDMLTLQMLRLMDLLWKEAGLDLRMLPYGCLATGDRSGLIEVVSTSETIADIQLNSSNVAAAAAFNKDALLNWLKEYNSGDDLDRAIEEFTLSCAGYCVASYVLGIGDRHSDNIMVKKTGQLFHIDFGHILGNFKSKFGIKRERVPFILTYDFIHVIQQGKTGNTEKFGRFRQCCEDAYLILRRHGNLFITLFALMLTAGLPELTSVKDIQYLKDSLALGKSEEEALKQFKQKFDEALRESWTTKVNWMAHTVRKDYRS
T1 sequence (P27986 whole entry partner): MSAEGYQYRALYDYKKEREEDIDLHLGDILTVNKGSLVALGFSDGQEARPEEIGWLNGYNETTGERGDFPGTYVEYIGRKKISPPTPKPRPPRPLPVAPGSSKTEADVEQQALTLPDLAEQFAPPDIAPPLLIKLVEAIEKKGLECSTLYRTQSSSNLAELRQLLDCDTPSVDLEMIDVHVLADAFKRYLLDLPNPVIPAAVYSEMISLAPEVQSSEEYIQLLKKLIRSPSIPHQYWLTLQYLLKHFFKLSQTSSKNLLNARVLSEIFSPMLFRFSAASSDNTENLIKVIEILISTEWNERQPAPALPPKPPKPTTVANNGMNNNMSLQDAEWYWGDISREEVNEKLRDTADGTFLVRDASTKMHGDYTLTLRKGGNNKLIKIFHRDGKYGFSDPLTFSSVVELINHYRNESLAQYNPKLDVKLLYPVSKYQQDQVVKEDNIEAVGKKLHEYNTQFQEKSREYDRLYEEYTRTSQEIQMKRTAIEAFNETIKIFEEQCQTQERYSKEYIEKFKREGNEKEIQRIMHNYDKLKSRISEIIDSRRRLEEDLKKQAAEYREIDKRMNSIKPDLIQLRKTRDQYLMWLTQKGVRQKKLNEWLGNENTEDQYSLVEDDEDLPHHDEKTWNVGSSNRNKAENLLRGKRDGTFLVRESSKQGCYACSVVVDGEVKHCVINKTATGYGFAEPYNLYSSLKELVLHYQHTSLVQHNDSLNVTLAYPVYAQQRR

Turning to `C/C=C/C(=O)CCC(=O)N1CCN(Cc2cc3nc(-c4cccc5[nH]ncc45)nc(N4CCOCC4)c3s2)CC1` [II-a-36, (E)-1-(4-((2-(1H-indazol-4-yl)-4-morpholinothieno[3,2-d]pyrimidin-6-yl)methyl)piperazin-1-yl)hept-5-ene-1,4-dione], the EC50 was in the range of 10 to 100 nM with Phospho-Akt(Ser473) [1] and 100 to 1000 nM in the assay on Phospho-Akt(Ser473) [2] (setting [3]). For the same molecule, the IC50 at PI3Kβ (p110β/p85α) was above 1000 nM.

With `CC(C)=CC(=O)CCC(=O)N1CCN(Cc2cc3nc(-c4cccc5[nH]ncc45)nc(N4CCOCC4)c3s2)CC1` [II-a-3, 1-(4-((2-(1H-indazol-4-yl)-4-morpholinothieno[3,2-d]pyrimidin-6-yl)methyl)piperazin-1-yl)-6-methylhept-5-ene-1,4-dione], the EC50 with Phospho-Akt(Ser473) [1] was 10 to 100 nM; in the assay on Phospho-Akt(Ser473) [2] (setting [3]) it was at most 10 nM; in the assay with Phospho-Akt(Ser473) [2] (Table 19, assay not given, classes agree with Table 23, read-out: EC50 pAkt^Ser473) it was at most 10 nM. For the same molecule, the IC50 on PI3Kβ (p110β/p85α) was above 1000 nM.
